Measured values: patent US20120129764A1 (priority 2009, published 2012)

Assays:
PA (FluA) = assay type: binding, influenza A virus
PA (FluB) = assay type: binding, influenza B virus

## MNINPYFLFIDVPIQ [PB11-15B, -NI--YF--ID--I-, reference compound]
PA (FluA)
  IC50: > 3000 nM
  competition for binding to FluA PA: not FluA PA binding
PA (FluB)
  IC50: 45 nM
  competition for binding to FluB PA: blocked FluB PA

## MDVNPFLLFLKVPAQ [PB11-15AT6F]
PA (FluA)
  IC50: 2.84 nM
PA (FluB)
  IC50: 750 nM

## MDVNPTFLFLKVPAQ [PB11-15AL7F, ------F--------]
PA (FluB)
  IC50: > 3000 nM

## MDVNPWLLFLKVPAQ [PB11-15AT6W]
PA (FluA)
  IC50: 3.4 nM
PA (FluB)
  IC50: 628 nM

## MDVNPHLLFLKVPAQ [PB11-15AT6H, -----H---------]
PA (FluB)
  IC50: > 3000 nM

## MDVNPTLLFLKVPAQ [PB11-15A, reference compound]
PA (FluB)
  IC50: > 3000 nM
  competition for binding to FluB PA: not FluB PA binding

## MNINPTLLFLKVPAQ [PB11-15AD2N,V3I, -NI------------]
PA (FluB)
  IC50: > 3000 nM

## MDVNPCLLFLKVPAQ [PB11-15AT6C, -----C---------]
PA (FluA)
  IC50: 43.6 nM
PA (FluB)
  IC50: > 3000 nM

## MDVNPYFLFLKVPAQ [PB11-15AT6Y,L7F]
PA (FluA)
  IC50: 7.51 nM
  competition for binding to FluA PA: competed for binding to FluA PA
PA (FluB)
  IC50: 345 nM
  competition for binding to FluB PA: also to FluB PA, albeit with less affinity than PB11-15B

## MNINPTLLFLKVPIQ [PB11-15AD2N,V3I,L14I, -NI----------I-]
PA (FluB)
  IC50: > 3000 nM

## MDVNPYLLFLKVPAQ [PB11-15AT6Y]
PA (FluA)
  IC50: 21.6 nM
  competition for binding to FluA PA: decreased binding of FluA PA compared to the double mutant, yet binding was still better than with wild type peptide
PA (FluB)
  IC50: 107 nM
  competition for binding to FluB PA: binding to FluB PA increased

## MDVNPTLLFIDVPAQ [PB11-15AL10I,K11D, ---------ID----]
PA (FluB)
  IC50: > 3000 nM
